Test results published in the supplement of paper PMC10883282.

Key:
Experiment in all cases: relative viability vs DMSO control (72 h) (fraction); higher = more viable cells
[1] = tested on: A204
In short: (§1)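 After seeding at densities set for 80–90% confluence in 384-well plates, sarcoma cell lines waited 24 h before 2.5 µl of serially diluted compound was added. Source plates held 10 mM down to 0.0002 mM. Plates were incubated 72 h at 37 °C with 5% CO2, with 0.1% DMSO vehicle and a 5 µM positive control, and relative viability was taken from ATPLite as percent growth averaged over up to triplicate wells, with 1 set as full and 0 as none.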

[2] = tested on: G401
In short: as §1

[3] = tested on: HS729
In short: as §1

[4] = tested on: KHOS-NP
In short: as §1

[5] = tested on: MES-SA
In short: as §1

[6] = tested on: RD
In short: as §1

[7] = tested on: SK-ES-1
In short: as §1

[8] = tested on: SK-LMS-1
In short: as §1

[9] = tested on: SW684
In short: as §1

[10] = tested on: SW872
In short: as §1

[11] = tested on: SYO-1
In short: as §1

[12] = tested on: VA-ES-BJ
In short: as §1

COc1cc(CCc2cc(NC(=O)c3ccc(N4CC(C)NC(C)C4)cc3)n[nH]2)cc(OC)c1 (centres undefined) [AZD-4547]
Details | relative viability
[1], 0.00017 µM | 1.04
[1], 0.00051 µM | 1.06
[1], 0.00152 µM | 1.04
[1], 0.00457 µM | 1.02
[1], 0.01372 µM | 1.02
[1], 0.04115 µM | 0.841
[1], 0.1235 µM | 0.714
[1], 0.3704 µM | 0.625
[1], 1.111 µM | 0.556
[1], 3.333 µM | 0.463
[1], 10 µM | 0.274
[2], 0.00017 µM | 1
[2], 0.00051 µM | 0.999
[2], 0.00152 µM | 0.964
[2], 0.00457 µM | 0.976
[2], 0.01372 µM | 0.9
[2], 0.04115 µM | 0.845
[2], 0.1235 µM | 0.706
[2], 0.3704 µM | 0.589
[2], 1.111 µM | 0.486
[2], 3.333 µM | 0.356
[2], 10 µM | 0.136
[3], 0.00017 µM | 1.02
[3], 0.00051 µM | 0.918
[3], 0.00152 µM | 0.914
[3], 0.00457 µM | 0.901
[3], 0.01372 µM | 0.827
[3], 0.04115 µM | 0.83
[3], 0.1235 µM | 0.65
[3], 0.3704 µM | 0.627
[3], 1.111 µM | 0.57
[3], 3.333 µM | 0.473
[3], 10 µM | 0.265
[4], 0.00017 µM | 1.079
[4], 0.00051 µM | 1.1
[4], 0.00152 µM | 1.07
[4], 0.00457 µM | 1.08
[4], 0.01372 µM | 1.048
[4], 0.04115 µM | 1.03
[4], 0.1235 µM | 1.03
[4], 0.3704 µM | 1.01
[4], 1.111 µM | 1.02
[4], 3.333 µM | 1
[4], 10 µM | 0.927
[5], 0.00017 µM | 0.886
[5], 0.00051 µM | 0.888
[5], 0.00152 µM | 0.92
[5], 0.00457 µM | 0.921
[5], 0.01372 µM | 0.894
[5], 0.04115 µM | 0.89
[5], 0.1235 µM | 0.789
[5], 0.3704 µM | 0.708
[5], 1.111 µM | 0.655
[5], 3.333 µM | 0.554
[5], 10 µM | 0.266
[6], 0.00017 µM | 1.03
[6], 0.00051 µM | 1.08
[6], 0.00152 µM | 1.07
[6], 0.00457 µM | 1.07
[6], 0.01372 µM | 1.08
[6], 0.04115 µM | 1.1
[6], 0.1235 µM | 1.063
[6], 0.3704 µM | 1.08
[6], 1.111 µM | 1.06
[6], 3.333 µM | 0.858
[6], 10 µM | 0.419
[7], 0.00017 µM | 1.02
[7], 0.00051 µM | 1.02
[7], 0.00152 µM | 1.01
[7], 0.00457 µM | 1
[7], 0.01372 µM | 1.05
[7], 0.04115 µM | 0.947
[7], 0.1235 µM | 0.928
[7], 0.3704 µM | 0.878
[7], 1.111 µM | 0.821
[7], 3.333 µM | 0.483
[7], 10 µM | 0.141
[8], 0.00017 µM | 0.9811
[8], 0.00051 µM | 0.953
[8], 0.00152 µM | 0.944
[8], 0.00457 µM | 0.993
[8], 0.01372 µM | 0.938
[8], 0.04115 µM | 0.991
[8], 0.1235 µM | 0.954
[8], 0.3704 µM | 0.9652
[8], 1.111 µM | 0.986
[8], 3.333 µM | 0.965
[8], 10 µM | 0.645
[9], 0.00017 µM | 1.11
[9], 0.00051 µM | 1.1
[9], 0.00152 µM | 1.12
[9], 0.00457 µM | 1.14
[9], 0.01372 µM | 1.07
[9], 0.04115 µM | 1.07
[9], 0.1235 µM | 1.06
[9], 0.3704 µM | 1.06
[9], 1.111 µM | 1.08
[9], 3.333 µM | 1.08
[9], 10 µM | 0.999
[10], 0.00017 µM | 1.05
[10], 0.00051 µM | 1
[10], 0.00152 µM | 1
[10], 0.00457 µM | 0.991
[10], 0.01372 µM | 0.987
[10], 0.04115 µM | 0.976
[10], 0.1235 µM | 0.963
[10], 0.3704 µM | 0.954
[10], 1.111 µM | 0.926
[10], 3.333 µM | 0.725
[10], 10 µM | 0.465
[11], 0.00017 µM | 0.945
[11], 0.00051 µM | 0.864
[11], 0.00152 µM | 0.836
[11], 0.00457 µM | 0.763
[11], 0.01372 µM | 0.672
[11], 0.04115 µM | 0.637
[11], 0.1235 µM | 0.588
[11], 0.3704 µM | 0.559
[11], 1.111 µM | 0.519
[11], 3.333 µM | 0.408
[11], 10 µM | 0.224
[12], 0.00017 µM | 1.05
[12], 0.00051 µM | 1.01
[12], 0.00152 µM | 1.03
[12], 0.00457 µM | 1.02
[12], 0.01372 µM | 1.01
[12], 0.04115 µM | 0.975
[12], 0.1235 µM | 0.983
[12], 0.3704 µM | 1.02
[12], 1.111 µM | 1.07
[12], 3.333 µM | 0.987
[12], 10 µM | 0.681

Cc1cc2c(F)c(Oc3ncnn4cc(OC[C@@H](C)O)c(C)c34)ccc2[nH]1 [Brivanib]
Details | relative viability
[1], 0.00017 µM | 1.05
[1], 0.00051 µM | 1.035
[1], 0.00152 µM | 1.02
[1], 0.00457 µM | 1.07
[1], 0.01372 µM | 1.06
[1], 0.04115 µM | 1.03
[1], 0.1235 µM | 1.01
[1], 0.3704 µM | 1.01
[1], 1.111 µM | 0.987
[1], 3.333 µM | 0.95
[1], 10 µM | 0.642
[2], 0.00017 µM | 0.939
[2], 0.00051 µM | 0.989
[2], 0.00152 µM | 0.965
[2], 0.00457 µM | 0.921
[2], 0.01372 µM | 0.969
[2], 0.04115 µM | 0.979
[2], 0.1235 µM | 0.964
[2], 0.3704 µM | 0.99
[2], 1.111 µM | 0.979
[2], 3.333 µM | 0.955
[2], 10 µM | 0.922
[3], 0.00017 µM | 0.93
[3], 0.00051 µM | 0.949
[3], 0.00152 µM | 0.955
[3], 0.00457 µM | 0.943
[3], 0.01372 µM | 0.929
[3], 0.04115 µM | 0.912
[3], 0.1235 µM | 0.925
[3], 0.3704 µM | 0.964
[3], 1.111 µM | 0.963
[3], 3.333 µM | 0.921
[3], 10 µM | 0.856
[4], 0.00017 µM | 1.04
[4], 0.00051 µM | 1.05
[4], 0.00152 µM | 1.05
[4], 0.00457 µM | 1.04
[4], 0.01372 µM | 1.06
[4], 0.04115 µM | 1.058
[4], 0.1235 µM | 1.06
[4], 0.3704 µM | 1.07
[4], 1.111 µM | 1.05
[4], 3.333 µM | 1.07
[4], 10 µM | 0.964
[5], 0.00017 µM | 0.897
[5], 0.00051 µM | 0.908
[5], 0.00152 µM | 0.8964
[5], 0.00457 µM | 0.892
[5], 0.01372 µM | 0.919
[5], 0.04115 µM | 0.917
[5], 0.1235 µM | 0.921
[5], 0.3704 µM | 0.935
[5], 1.111 µM | 0.934
[5], 3.333 µM | 0.926
[5], 10 µM | 0.636
[6], 0.00017 µM | 1.07
[6], 0.00051 µM | 1.06
[6], 0.00152 µM | 1.08
[6], 0.00457 µM | 1.07
[6], 0.01372 µM | 1.11
[6], 0.04115 µM | 1.1
[6], 0.1235 µM | 1.1
[6], 0.3704 µM | 1.091
[6], 1.111 µM | 1.08
[6], 3.333 µM | 1.07
[6], 10 µM | 0.964
[7], 0.00017 µM | 1.04
[7], 0.00051 µM | 1.04
[7], 0.00152 µM | 1.07
[7], 0.00457 µM | 1.07
[7], 0.01372 µM | 1.02
[7], 0.04115 µM | 1.05
[7], 0.1235 µM | 1.04
[7], 0.3704 µM | 0.997
[7], 1.111 µM | 1.022
[7], 3.333 µM | 1.06
[7], 10 µM | 0.952
[8], 0.00017 µM | 1.03
[8], 0.00051 µM | 1.03
[8], 0.00152 µM | 1.02
[8], 0.00457 µM | 1.03
[8], 0.01372 µM | 1.02
[8], 0.04115 µM | 1.03
[8], 0.1235 µM | 1.06
[8], 0.3704 µM | 1.02
[8], 1.111 µM | 1.04
[8], 3.333 µM | 1.03
[8], 10 µM | 0.687
[9], 0.00017 µM | 1.1
[9], 0.00051 µM | 1.11
[9], 0.00152 µM | 1.12
[9], 0.00457 µM | 1.13
[9], 0.01372 µM | 1.146
[9], 0.04115 µM | 1.15
[9], 0.1235 µM | 1.12
[9], 0.3704 µM | 1.15
[9], 1.111 µM | 1.12
[9], 3.333 µM | 1.16
[9], 10 µM | 1.21
[10], 0.00017 µM | 0.989
[10], 0.00051 µM | 0.999
[10], 0.00152 µM | 0.996
[10], 0.00457 µM | 1.04
[10], 0.01372 µM | 1.009
[10], 0.04115 µM | 1
[10], 0.1235 µM | 1.03
[10], 0.3704 µM | 1.05
[10], 1.111 µM | 1.06
[10], 3.333 µM | 1.056
[10], 10 µM | 1.02
[11], 0.00017 µM | 0.941
[11], 0.00051 µM | 0.936
[11], 0.00152 µM | 0.931
[11], 0.00457 µM | 0.935
[11], 0.01372 µM | 0.919
[11], 0.04115 µM | 0.925
[11], 0.1235 µM | 0.921
[11], 0.3704 µM | 0.906
[11], 1.111 µM | 0.861
[11], 3.333 µM | 0.792
[11], 10 µM | 0.609
[12], 0.00017 µM | 1.01
[12], 0.00051 µM | 1.03
[12], 0.00152 µM | 1
[12], 0.00457 µM | 0.996
[12], 0.01372 µM | 0.96
[12], 0.04115 µM | 1
[12], 0.1235 µM | 1.011
[12], 0.3704 µM | 1.03
[12], 1.111 µM | 1.06
[12], 3.333 µM | 1.07
[12], 10 µM | 1.07
